We go through 23 molecules from US20070027184A1, “Multicyclic sulfonamide compounds as inhibitors of histone deacetylase for the treatment of disease” (KALYPSYS, INC., priority 2005, published 2007).

The subject of one assay is HDAC. Description: In vitro HDAC-inhibition assay (Fluor de Lys). The assay is classed as biochemical. As to the method:
This assay measures a compound's ability to inhibit acetyl-lysine deacetylation in vitro and was used as both a primary screening method as well as for IC50 determinations of confirmed inhibitors. The assay is performed in vitro using an HDAC enzyme source (e.g. partially purified nuclear extract or immunopurified HDAC complexes) and a proprietary fluorescent substrate/developer system (HDAC Quantizyme Fluor de Lys Fluorescent Activity Assay, BIOMOL). The assay is run in 1,536-well Greiner white-bottom plates using the following volumes and order of addition:
Step 1: Enzyme (2.5 ul) source added to plate (from refrigerated container)
Step 2: Compounds (50 nl) added with pin transfer device
Step 3: Fluor de Lys (2.5 ul) substrate added, incubate at RT, 30 minutes
Step 4: Developer (5 ul) solution is added (containing TSA), to stop reaction
Step 5: Plate Reader—data collection
The deacetylated fluorophore is excited with 360 nm light and the emitted light (460 nm) is detected on an automated fluorometric plate reader (Aquest, Molecular Devices).

The next assay deals with HDAC in cells. Description: Cellular IC50 (cellular histone hyperacetylation / differential cytotoxicity assays). The assay is classed as cell-based. On the procedure: These two secondary assays evaluates a compound's ability to inhibit HDAC in cells by measuring cellular histone acetylation levels. The cytoblot facilitates quantitative EC50 information for cellular HDAC inhibition. Transformed cell lines (e.g. HeLa, A549, MCF-7) are cultured under standard media and culture conditions prior to plating.
Cells (approx. 2,500/well) are allowed to adhere 10-24 hours to wells of a 384-well Greiner PS assay plate in media containing 1-5% serum. Cells are treated with appropriate compound and specific concentrations for 0 to 24 hours. Cells are washed once with PBS (60 ul) and then fixed (95% ethanol, 5% acetic acid or 2% PFA) for 1 minute at RT (30 ul). Cells are blocked with 1% BSA for 1 hour and washed and stained with antibody (e.g. anti-Acetylated Histone H3, Upstate Biotechnology), followed by washing and incubation with an appropriate secondary antibody conjugated to HRP or fluorophore. For luminescence assays, signal is generated using Luminol substrate (Santa Cruz Biotechnology) and detected using an Aquest plate reader (Molecular Devices).
HDAC inhibitors display differential cytotoxicity toward certain transformed cell lines. Cells are cultured according to standard ATCC recommended conditions that are appropriate to each cell type. Compounds were tested for their ability to kill different cell types (normal and transformed) using the ATPlite luminescence ATP detection assay system (Perkin Elmer). Assays are run in either 384-well or 1536-well Greiner PS plates. Cells (30 ul or 5 ul, respectively) are dispensed using either multichannel pipette for 384-well plates, or proprietary Kalypsys bulk liquid dispenser for 1536-well plates. Compounds added using proprietary pin-transfer device (500 nL or 5 nL) and incubated 5 to 30 hours prior to analysis. Luminescence is measured using Aquest plate reader (Molecular Devices).

For `O=C(CSSCC(=O)c1ccc(NS(=O)(=O)c2ccc3c(c2)OCCO3)nc1)c1ccc(NS(=O)(=O)c2ccc3c(c2)OCCO3)nc1` [Example 8, 2,3-Dihydro-benzo[1,4]dioxine-6-sulfonic acid [5-(2-mercapto-acetyl)-pyridin-2-yl]-amide disulfide], the IC50 with HDAC and with HDAC in cells was at most 1 µM throughout.
In the case of `CC(=O)SCC(=O)c1ccc(NS(=O)(=O)c2ccc3ncccc3c2)cc1` [Example 5, Thioacetic acid S-{2-oxo-2-[4-(quinoline-6-sulfonylamino)-phenyl]-ethyl}ester], the IC50 in the assay with HDAC and in the assay on HDAC in cells was at most 1 µM throughout.
Turning to `CC(=O)SCC(=O)c1ccc(NS(=O)(=O)c2ccc3nc(N(C)CCCN(C)C)ccc3c2)nc1` [Example 23, Thioacetic acid S-[2-(6-{2-[(3-dimethylamino-propyl)-methyl-amino]-quinoline-6-sulfonylamino}-pyridin-3-yl)-2-oxo-ethyl]ester], the IC50 (in general, the concentration needed to halve the response being measured) with HDAC in cells was at most 1 µM.
Same read-out and setting: the value for `CC(=O)SCC(=O)c1ccc(NS(=O)(=O)c2ccc3nc(NCCN(C)C)ccc3c2)nc1` [Example 21, Thioacetic acid S-(2-{6-[2-(2-dimethylamino-ethylamino)-quinoline-6-sulfonylamino]-pyridin-3-yl}-2-oxo-ethyl)ester] was at most 1 µM; that for `CC(=O)SCC(=O)c1cnc(NS(=O)(=O)c2ccc3c(c2)OCCO3)s1` [Example 18, Thioacetic acid S-{2-[2-(2,3-dihydro-benzo[1,4]dioxine-6-sulfonylamino)-thiazol-5-yl]-2-oxo-ethyl}ester] was at most 1 µM.
Regarding `O=C(O)CCSCC(=O)c1ccc(NS(=O)(=O)c2ccc3c(c2)OCCO3)nc1` [Example 9, 3-{2-[6-(2,3-Dihydro-benzo[1,4]dioxine-6-sulfonylamino)-pyridin-3-yl]-2-oxo-ethylsulfanyl}propionic acid], in the assay with HDAC, the IC50 is over 1 µM.
For the molecule `O=C(CSC(=O)c1ccccc1)c1ccc(NS(=O)(=O)c2ccc3c(c2)OCCO3)nc1` [Example 12, Thiobenzoic acid S-{2-[6-(2,3-dihydro-benzo[1,4]dioxine-6-sulfonylamino)-pyridin-3-yl]-2-oxo-ethyl}ester], the IC50 in the assay on HDAC and with HDAC in cells was at most 1 µM in each case.
For the molecule `CC(=O)SCC(=O)c1cnc(NS(=O)(=O)c2ccc3c(c2)OCCO3)nc1` [Example 7, Thioacetic acid S-{2-[2-(2,3-dihydro-benzo[1,4]dioxine-6-sulfonylamino)-pyrimidin-5-yl]-2-oxo-ethyl}ester], the IC50 in the assay with HDAC was at most 1 µM; with HDAC in cells, over 1 µM.
`CC(=O)SCC(=O)c1ccc(NS(=O)(=O)c2ccc3nc(N(C)C)ccc3c2)nc1` [Example 24, Thioacetic acid S-{2-[6-(2-dimethylamino-quinoline-6-sulfonylamino)-pyridin-3-yl]-2-oxo-ethyl}ester] displayed an IC50 in the assay with HDAC in cells of at most 1 µM.
The same measure, in the same setting: for `CC(=O)SCC(=O)c1ccc(NS(=O)(=O)c2ccc3c(c2)OCCN3C)nc1` [Example 14, Thioacetic acid S-{2-[6-(4-methyl-3,4-dihydro-2H-benzo[1,4]oxazine-7-sulfonylamino)-pyridin-3-yl]-2-oxo-ethyl}ester] the value was at most 1 µM.
With `CC(=O)SCC(=O)c1ccc(NS(=O)(=O)c2ccc3c(c2)OCO3)nc1` [Example 6, Thioacetic acid S-{2-[6-(benzo[1,3]dioxole-5-sulfonylamino)-pyridin-3-yl]-2-oxo-ethyl}ester], the IC50 in the assay with HDAC and in the assay with HDAC in cells was at most 1 µM each time.
In the assay on HDAC in cells, `CC(=O)SCC(=O)c1ccc(NS(=O)(=O)c2ccc3c(c2)OCCCO3)nc1` [Example 15, Thioacetic acid S-{2-[6-(3,4-dihydro-2H-benzo[b][1,4]dioxepine-7-sulfonylamino)-pyridin-3-yl]-2-oxo-ethyl}ester] came in with an IC50 of at most 1 µM.
On the same count and under the same terms, for `CC(=O)SCC(=O)c1ccc(NS(=O)(=O)c2ccc3nc(N4CCN(C)CC4)ccc3c2)nc1` [Example 19, Thioacetic acid S-(2-{6-[2-(4-methyl-piperazin-1-yl)-quinoline-6-sulfonylamino]-pyridin-3-yl}-2-oxo-ethyl)ester] the value was at most 1 µM.
For `CC(=O)SCC(=O)c1ccc(NS(=O)(=O)c2ccc3c(c2)OCCO3)cn1` [Example 3, Thioacetic acid S-{2-[5-(2,3-dihydro-benzo[1,4]dioxine-6-sulfonylamino)-pyridin-2-yl]-2-oxo-ethyl}ester], the IC50 in the assay on HDAC and in the assay with HDAC in cells was at most 1 µM throughout.
Molecule `CC(=O)SCC(=O)c1ccc(NS(=O)(=O)c2ccc3nc(NCCCN(C)C)ccc3c2)nc1` [Example 22, Thioacetic acid S-(2-{6-[2-(3-dimethylamino-propylamino)-quinoline-6-sulfonylamino]-pyridin-3-yl}-2-oxo-ethyl)ester] gave an IC50 in the assay with HDAC in cells of at most 1 µM.
Same read-out and setting: for `CC(=O)SCC(=O)c1csc(NS(=O)(=O)c2ccc3c(c2)OCCO3)n1` [Example 17, Thioacetic acid S-{2-[2-(2,3-dihydro-benzo[1,4]dioxine-6-sulfonylamino)-thiazol-4-yl]-2-oxo-ethyl}ester] the value was over 1 µM.
For the molecule `CC(=O)SCC(=O)c1ccc(NS(=O)(=O)c2ccc3c(c2)ncn3C)nc1` [Example 2], the IC50 with HDAC and with HDAC in cells was at most 1 µM each time.
Take `O=C(CS)c1ccc(NS(=O)(=O)c2ccc3c(c2)OCCO3)nc1` [Example 11, 2,3-Dihydro-benzo[1,4]dioxine-6-sulfonic acid[5-(2-mercapto-acetyl)-pyridin-2-yl]-amide]: the IC50 in the assay with HDAC and in the assay on HDAC in cells was at most 1 µM in each case.
Turning to `CN(C)CCSSCC(=O)c1ccc(NS(=O)(=O)c2ccc3c(c2)OCCO3)nc1` [Example 10, 2,3-Dihydro-benzo[1,4]dioxine-6-sulfonic acid {5-[2-(2-dimethylamino-ethyldisulfanyl)-acetyl]-pyridin-2-yl}-amide], the IC50 with HDAC and with HDAC in cells was at most 1 µM throughout.
For `CC(=O)SCC(=O)c1ccc(NS(=O)(=O)c2ccc3c(c2)OCC(C)(C)CO3)nc1` [Example 16, Thioacetic acid S-{2-[6-(3,3-dimethyl-3,4-dihydro-2H-benzo[b][1,4]dioxepine-7-sulfonylamino)-pyridin-3-yl]-2-oxo-ethyl}ester], in the assay on HDAC in cells, the IC50 is at most 1 µM.
`NC(CSSCC(=O)c1ccc(NS(=O)(=O)c2ccc3c(c2)OCCO3)nc1)C(=O)O` (stereo not drawn) [Example 13, 2-Amino-3-{2-[6-(2,3-dihydro-benzo[1,4]dioxine-6-sulfonylamino)-pyridin-3-yl]-2-oxo-ethyldisulfanyl}-propionic acid]: the IC50 in the assay on HDAC and with HDAC in cells was at most 1 µM each time.
In the case of `CC(=O)SCC(=O)c1ccc(NS(=O)(=O)c2ccc3nc(N4CCCN(C)CC4)ccc3c2)nc1` [Example 20, Thioacetic acid S-(2-{6-[2-(4-methyl-[1,4]diazepan-1-yl)-quinoline-6-sulfonylamino]-pyridin-3-yl}-2-oxo-ethyl)ester], in the assay with HDAC in cells, the IC50 was at most 1 µM.
`CC(=O)SCC(=O)c1ccc(NS(=O)(=O)c2ccc3c(c2)CCO3)nc1` [Example 4, Thioacetic acid S-{2-[6-(2,3-dihydro-benzofuran-5-sulfonylamino)-pyridin-3-yl]-2-oxo-ethyl}ester]: the IC50 with HDAC in cells is at most 1 µM.
